The source of these data is ChEMBL document CHEMBL3351946, “Design and synthesis of potent antitumor water-soluble phenyl N-mustard-benzenealkylamide conjugates via a bioisostere approach” (Eur J Med Chem, 2014).

For series [1], the system named is CCRF-CEM. Put plainly: Cytotoxicity against human CCRF-CEM cells assessed as growth inhibition after 72 hrs by Alamar Blue assay. The format is functional, cell-based. (In general: Alamar Blue is a resazurin reagent that responds to reducing activity.)
Series [2] concerns CCRF-CEM. Put plainly: Cytotoxicity against vinblastine-resistant human CCRF-CEM cells assessed as growth inhibition after 72 hrs by Alamar Blue assay. The format is functional, cell-based.
Series [3] is described as follows: Cytotoxicity against human PC3 cells assessed as growth inhibition after 72 hrs by Alamar Blue assay. The class given is functional, cell-based. Particulars: PC-3, 72 h.
The test system of another series is HT-29. Put plainly: Cytotoxicity against human HT-29 cells assessed as growth inhibition after 72 hrs by Alamar Blue assay. The format is functional, cell-based. As to conditions: HT-29, 72 h.
Series [4] in a line: Cytotoxicity against human H460 cells assessed as growth inhibition after 72 hrs by Alamar Blue assay. The class given is functional, cell-based. Particulars: NCI-H460, 72 h.
Series [5] in a line: Cytotoxicity against human H1299 cells assessed as growth inhibition after 72 hrs by Alamar Blue assay. The class given is functional, cell-based. Particulars: NCI-H1299, 72 h.
Series [6] in a line: Cytotoxicity against human HCT116 cells assessed as growth inhibition after 72 hrs by Alamar Blue assay. The format is functional, cell-based. Particulars: HCT-116, 72 h.
The subject of series [7] is CCRF-CEM. Put plainly: Resistance factor, ratio of IC50 for vinblastine-resistant human CCRF-CEM cells to IC50 for human CCRF-CEM cells. The format is functional.
Series [8] can be described thus: Cytotoxicity against human H3347 cells assessed as growth inhibition after 72 hrs by Alamar Blue assay. The format is functional, cell-based. As to conditions: H3347, 72 h.
Series [9] in a line: Cytotoxicity against human DLD1 cells assessed as growth inhibition after 72 hrs by Alamar Blue assay. The format is functional, cell-based. Particulars: DLD-1, 72 h.
A short description of series [10]: Antitumor activity against human HCT116 cells xenografted in nude mouse assessed as tumor growth inhibition at 30 mg/kg,iv qd administered for 6 days measured on day 15 relative to control. The format is functional, HCT-116.
Series [11] in a line: Antitumor activity against human H3347 cells xenografted in nude mouse assessed as tumor growth inhibition at 30 mg/kg,iv qd administered for 6 days measured on day 16 relative to control. The format is functional. (In general: A xenograft is tissue or cells of one species grown in another, often human tumour cells in immunodeficient mice.)
Series [12] is described as follows: Antitumor activity against human H3347 cells xenografted in nude mouse assessed as tumor growth inhibition at 30 mg/kg,iv qd administered for 6 days measured on day 31 relative to control. The format is functional. As to conditions: read-out: TGI.
Series [13] is described as follows: Antitumor activity against human HCT116 cells xenografted in nude mouse assessed as tumor growth inhibition at 30 mg/kg,iv qd administered for 6 days measured on day 31 relative to control. The class given is functional. Particulars: HCT-116, iv, read-out: TGI.
Series [14] deals with Mus musculus. Put plainly: Toxicity in nude mouse xenografted with human HCT116 cells assessed as body weight loss at 30 mg/kg,iv qd administered for 6 days measured on day 13 relative to control. The format is organism-based, HCT-116. Also on record: dose 30 mg/kg. As to conditions: in vivo, 144 h.
Series [15] concerns Mus musculus. Put plainly: Toxicity in nude mouse xenografted with human H3347 cells assessed as body weight loss at 30 mg/kg,iv qd administered for 6 days. The class given is organism-based. Also noted: dose 30 mg/kg. As to conditions: in vivo, 144 h.
For series [16], the system named is Mus musculus. Put plainly: Toxicity in nude mouse xenografted with human HCT116 cells assessed as change in body weight at 30 mg/kg,iv qd administered for 6 days measured on day 31 relative to control. The class given is organism-based, HCT-116. Also on record: dose 30 mg/kg. Particulars: in vivo, 144 h.
Series [17] concerns Mus musculus. Put plainly: Toxicity in nude mouse xenografted with human H3347 cells assessed as change in body weight at 30 mg/kg,iv qd administered for 6 days measured on day 31 relative to control. Also noted: dose 30 mg/kg. As to conditions: in vivo, 144 h. The format is organism-based.
In a further series the test system is HCT-116. Put plainly: Antitumor activity against human HCT116 cells xenografted in nude mouse assessed as survival at 30 mg/kg,iv qd administered for 6 days. The format is functional, organism-based. Also on record: dose 30 mg/kg.
The next series deals with H3347. Put plainly: Antitumor activity against human H3347 cells xenografted in nude mouse assessed as survival at 30 mg/kg,iv qd administered for 6 days. The format is functional, organism-based. Also on record: dose 30 mg/kg.
A short description of series [18]: Antitumor activity against human HCT116 cells xenografted in nude mouse assessed as tumor growth inhibition at 30 mg/kg,iv qd administered for 6 days measured on day 13 relative to control. The format is functional, HCT-116.
The nature of series [19]: Antitumor activity against human HCT116 cells xenografted in nude mouse assessed as tumor growth inhibition at 30 mg/kg,iv qd administered for 6 days measured on day 30 relative to control. The format is functional. As to conditions: HCT-116, iv, read-out: TGI.
The test system of series [20] is Mus musculus. Put plainly: Toxicity in nude mouse xenografted with human HCT116 cells assessed as change in body weight at 30 mg/kg,iv qd administered for 6 days measured on day 30 relative to control. The format is organism-based, HCT-116. Also on record: dose 30 mg/kg. As to conditions: in vivo, 144 h.
A short description of series [21]: Induction of pEGFP-N1 DNA (unknown origin) interstand crosslinking after 2 hrs by alkaline agarose gel shift assay. A general note: A gel shift assay detects complexes by their altered migration in electrophoresis.
Series [22] can be described thus: Toxicity in mouse. The format is organism-based. Particulars: in vivo.
The nature of series [23]: Acute toxicity in iv dosed mouse administered for 14 days. Particulars: in vivo. The class given is organism-based.
Series [24] in a line: Antitumor activity against human PC3 cells xenografted in nude mouse assessed as tumor growth inhibition at 40 mg/kg,iv administered every 2 days for 5 doses measured on day 28 to 31 relative to control. The format is functional, PC-3.
Series [25] is described as follows: Antitumor activity against human H460 cells xenografted in nude mouse assessed as tumor growth inhibition at 30 mg/kg,iv qd administered for 6 days measured on day 15 relative to control. The class given is functional, NCI-H460.
Series [26] in a line: Antitumor activity against human PC3 cells xenografted in nude mouse assessed as tumor growth inhibition at 40 mg/kg,iv administered every 2 days for 5 doses measured on day 38 relative to control. The format is functional. As to conditions: PC-3, iv, read-out: TGI.
A short description of series [27]: Antitumor activity against human H460 cells xenografted in nude mouse assessed as tumor growth inhibition at 30 mg/kg,iv qd administered for 6 days measured on day 37 relative to control. The class given is functional. Particulars: NCI-H460, iv, read-out: TGI.
The subject of series [28] is Mus musculus. Put plainly: Toxicity in nude mouse xenografted with human PC3 cells assessed as body weight loss at 40 mg/kg,iv administered every 2 days for 5 doses measured on day 13 relative to control. Particulars: in vivo, 48 h. The class given is organism-based, PC-3. Also on record: dose 40 mg/kg.
Series [29] relates to Mus musculus. Put plainly: Toxicity in nude mouse xenografted with human H460 cells assessed as body weight loss at 30 mg/kg,iv qd administered for 6 days measured on day 15 relative to control. Particulars: in vivo, 144 h. Also on record: dose 30 mg/kg. The class given is organism-based.
For series [30], the system named is Mus musculus. Put plainly: Toxicity in nude mouse xenografted with human PC3 cells assessed as change in body weight at 40 mg/kg,iv administered every 2 days for 5 doses measured on day 38 relative to control. The class given is organism-based, PC-3. Also noted: dose 40 mg/kg. Particulars: in vivo, 48 h.
Series [31] concerns Mus musculus. Put plainly: Toxicity in nude mouse xenografted with human H460 cells assessed as body weight loss at 30 mg/kg,iv qd administered for 6 days measured on day 37 relative to control. As to conditions: in vivo, 144 h. Also noted: dose 30 mg/kg. The format is organism-based.
The subject of another series is NCI-H460. Put plainly: Antitumor activity against human H460 cells xenografted in nude mouse assessed as survival at 30 mg/kg,iv qd administered for 6 days. The class given is functional, organism-based. Also on record: dose 30 mg/kg.

Activity calls are given as the source filed them. The rule behind the calls is not given here.

Broadly, the IC50 is the midpoint of a concentration-inhibition curve. In the case of `O=C(CN1CCCC1)Nc1ccc(NC(=O)Nc2ccc(N(CCCl)CCCl)cc2)cc1`, the IC50 in the series with CCRF-CEM [1] is 0.26 µM; in the series with CCRF-CEM [2], 2 µM; in series [3], 3.52 µM; with HT-29, 12.3 µM; in series [4], 0.95 µM; in series [5] it was 3.41 µM. Further, the concentration for half-maximal inhibition (IC50) turned out to be 1.33 µM in series [6], 1.53 µM in [8] and 4.37 µM in [9]. In the series on CCRF-CEM [7], the “Ratio IC50” value is given as 7.69.
Regarding `CCc1c2c(nc3ccc(OC(=O)N4CCC(N5CCCCC5)CC4)cc13)-c1cc3c(c(=O)n1C2)COC(=O)[C@]3(O)CC` [IRINOTECAN], the 50% inhibitory concentration (IC50) with HT-29 was 82.8 µM; in series [8], 7.53 µM; in series [9], 25.1 µM. Also, the “%max” value in series [10] came out at 92%; in series [11] it was 90%; with Mus musculus [15], 0%. The inhibition in vivo at 30 mg/kg in series [12] is 90%; in series [13] it was 85%. Moreover, in the series with Mus musculus [14], the “body weight change relative to control” value is recorded as -3%. Moreover, the Activity with Mus musculus [16] and in the series on Mus musculus [17] was 8% each time. For the same molecule, the result with HCT-116 and in the series with H3347 was Active.
As for `CN(C)CC(=O)Nc1ccc(NC(=O)Nc2ccc(N(CCCl)CCCl)cc2)cc1`, the IC50 was found to be 0.29 µM with CCRF-CEM [1]; 1.34 µM in the series on CCRF-CEM [2]; 7.33 µM in [3]; 20.1 µM with HT-29; 1.21 µM in [4]; 5.36 µM in [5]. Also, the IC50 in series [6] came to 0.85 µM; in series [8] it was 1.53 µM; in series [9] it was 5.76 µM. Besides, the “Ratio IC50” value with CCRF-CEM [7] is given as 4.62. For the same molecule, the “%max” value in series [18] was determined as 72%. Also, in [19], the inhibition in vivo at 30 mg/kg amounted to 51%. For the same molecule, in the series on Mus musculus [14], the “body weight change relative to control” value is recorded as -3%. For the same molecule, the Activity in the series on Mus musculus [20] is 3%; in [21] it was “Dose-dependent effect”. For the same molecule, the outcome with HCT-116 was Active.
With `CCN(CC)CCC(=O)Nc1ccc(NC(=O)Nc2ccc(N(CCCl)CCCl)cc2)cc1`, the IC50 in the series on CCRF-CEM [1] stood at 0.3 µM; in the series with CCRF-CEM [2], 8.27 µM; in series [3], 2.47 µM; in the series on HT-29, 19.3 µM; in series [4] it was 1.83 µM; in series [5], 10.3 µM. In addition, the 50% inhibitory concentration (IC50) in [6] was 3.08 µM; in series [8], 1.03 µM; in series [9], 7.82 µM. In addition, the “Ratio IC50” value with CCRF-CEM [7] was determined as 27.57.
A word on the LD50: it is the dose at which mortality reaches 50%. A lower LD50 goes with greater toxicity. In turn, `CN(C)CCNC(=O)c1cccc(NC(=O)Nc2ccc(N(CCCl)CCCl)cc2)c1` registered an MTD in series [22] of 30 mg/kg. The same molecule registered an LD50 at 336 h in [23] of 76 mg/kg. Further, the IC50 in the series with CCRF-CEM [2] worked out at 1.05 µM; in [3] it was 17.6 µM; in series [4], 38.3 µM; in [5] it was 14.8 µM; in series [6], 4.85 µM. Besides, the “Ratio IC50” value in the series on CCRF-CEM [7] turned out to be 0.85. The “%max” value in [10] is 81%; in series [24], 94%; in series [25], 17%; with Mus musculus [28], -16%; with Mus musculus [29], -16%. In addition, the inhibition in vivo at 30 mg/kg in series [13] was found to be 79%; in series [27] it was 8%. In series [26], the inhibition in vivo at 40 mg/kg amounted to 89%. Besides, the “body weight change relative to control” value with Mus musculus [14] is -7%. Further, the Activity in the series on Mus musculus [16] is 0%; with Mus musculus [30] it was -2%; with Mus musculus [31], -6%. Further, the outcome with HCT-116 and in the series on NCI-H460 was Active.
As for `O=C(CN1CCCCC1)Nc1ccc(NC(=O)Nc2ccc(N(CCCl)CCCl)cc2)cc1`, the IC50 worked out at 0.31 µM in the series with CCRF-CEM [1]; 1.45 µM in the series with CCRF-CEM [2]; 2.24 µM in [3]; 11.8 µM in the series on HT-29; 1.05 µM in series [4]; 2.52 µM in [5]. The results for the concentration for half-maximal inhibition (IC50) in series [6], in series [8] and in [9] were 0.99 µM, 1.16 µM and 4.53 µM, respectively. Also, the “Ratio IC50” value with CCRF-CEM [7] is recorded as 4.68.
